Tests used:
[1] = tested on: Protein farnesyltransferase (Trypanosoma brucei); assay: Percentage in vitro inhibition of recombinant Trypanosoma brucei protein farnesyltransferase at 2 uM
[2] = molecular target: T1, Protein farnesyltransferase (Rattus norvegicus) (UniProt Q04631+Q02293); assay: Percentage in vitro inhibition of rat protein farnesyltransferase at 2 uM; format: protein-complex assay
[3] = molecular target: T2, geranylgeranyltransferase type-I (Rattus norvegicus) (UniProt P53610+Q04631); assay: Percentage in vitro inhibition of rat protein geranylgeranyltransferase type-I at 2 uM; format: protein-complex assay
[4] = molecular target: T2, geranylgeranyltransferase type-I (Rattus norvegicus); assay: Percentage in vitro inhibition of rat protein geranylgeranyltransferase type-I at 5 uM; format: protein-complex assay
[5] = tested on: Protein farnesyltransferase (Trypanosoma brucei); assay: Percentage in vitro inhibition of recombinant Trypanosoma brucei protein farnesyltransferase at 5 uM
[6] = molecular target: T1, Protein farnesyltransferase (Rattus norvegicus); assay: Percentage in vitro inhibition of rat protein farnesyltransferase at 5 uM; format: protein-complex assay
[7] = molecular target: T1, Protein farnesyltransferase (Rattus norvegicus); assay: Percentage in vitro inhibition of rat protein farnesyltransferase at 50 uM; format: protein-complex assay
[8] = molecular target: T2, geranylgeranyltransferase type-I (Rattus norvegicus); assay: Percentage in vitro inhibition of rat protein geranylgeranyltransferase type-I at 50 uM; format: protein-complex assay
[9] = molecular target: T2, geranylgeranyltransferase type-I (Rattus norvegicus); assay: Percentage in vitro inhibition of rat protein geranylgeranyltransferase type-I at 100 uM; format: protein-complex assay
[10] = molecular target: T1, Protein farnesyltransferase (Rattus norvegicus); assay: Percentage in vitro inhibition of rat protein farnesyltransferase at 100 uM; format: protein-complex assay
[11] = tested on: Protein farnesyltransferase (Trypanosoma brucei); assay: Percentage in vitro inhibition of recombinant Trypanosoma brucei protein farnesyltransferase at 100 uM
Trypanosoma brucei = assay: In vitro dose required to inhibit growth of Trypanosoma brucei; format: functional; details: read-out: ED50 (the source's name)

Row | SMILES | inhibition [1] | inhibition [7] | inhibition [8] | inhibition [9] | inhibition [10] | inhibition [11] | other results
1 | CCN(CC)C1=NS(=O)(=O)C(C#Cc2ccccc2)=C1c1ccc(OC)cc1 | 0% |  |  |  |  |  | inhibition [2]: 2%; inhibition [3]: 7%
2 | CCN(CC)C1=NS(=O)(=O)C=C1c1ccc(OC)cc1 |  |  |  |  |  |  | inhibition [4]: 12%; inhibition [5]: 0%; inhibition [6]: 0%
3 | CCN(CC)C1=NS(=O)(=O)C(C2CC(c3c(C)c(C)c(C)c(C)c3C)=NO2)=C1c1ccc(OC)cc1 (stereo unspecified) | 13% | 7% |  |  |  |  | 
4 | CCN(CC)C1=NS(=O)(=O)C(C2CC(c3ccccc3C)=NO2)=C1c1ccc(OC)cc1 (stereo unspecified) | 2% | 22% | 0% |  |  |  | 
5 | CCN(CC)C1=NS(=O)(=O)C(c2ccccc2)=C1c1ccc(OC)cc1 |  |  |  | 26% | 0% | 13% | 
6 | CCN(CC)C1=NS(=O)(=O)C(SC)=C1c1ccc(OC)cc1 |  |  |  | 36% | 5% | 7% | 
7 | CCN(CC)C1=NS(=O)(=O)C(C2CC(c3c(Cl)cccc3Cl)=NO2)=C1c1ccc(OC)cc1 (stereo unspecified) | 32% | 14% | 45% |  |  |  | 
8 | CCN(CC)C1=NS(=O)(=O)C(SC2CCCCC2)=C1c1ccc(OC)cc1 |  |  |  | 20% | 6% | 52% | 
9 | CCN(CC)C1=NS(=O)(=O)C(C2CC(c3ccc(Cl)cc3)=NO2)=C1c1ccc(OC)cc1 (stereo unspecified) | 0% | 8% | 20% |  |  |  | 
10 | CCN(CC)C1=NS(=O)(=O)C(SC/C=C(\C)CC/C=C(/C)CCC=C(C)C)=C1c1ccc(OC)cc1 |  |  |  | 28% | 0% | 25% | 
11 | CCN(CC)C1=NS(=O)(=O)C(C2CC(c3ccc(OC)cc3)=NO2)=C1c1ccc(OC)cc1 (stereo unspecified) | 8% | 13% | 17% |  |  |  | 
12 | CCN(CC)C1=NS(=O)(=O)C(c2cn(S(=O)(=O)c3ccccc3)c3ccccc23)=C1c1ccc(OC)cc1 |  |  |  | 25% | 5% | 29% | 
13 | CCN(CC)C1=NS(=O)(=O)C(C2CC(c3ccc([N+](=O)[O-])cc3)=NO2)=C1c1ccc(OC)cc1 (stereo unspecified) | 2% | 18% | 8% |  |  |  | 
14 | CCN(CC)C1=NS(=O)(=O)C(Sc2ccccc2)=C1c1ccc(OC)cc1 |  |  |  | 17% | 5% | 62% | 

More lines, main results first:

Row | inhibition [1] | inhibition [7] | inhibition [8] | inhibition [9] | inhibition [10] | inhibition [11] | SMILES | other results
15 | 28% | 2% | 7% |  |  |  | CCN(CC)C1=NS(=O)(=O)C(C2CC(c3c(C)c(Cl)c(C)c(Cl)c3C)=NO2)=C1c1ccc(OC)cc1 (stereo unspecified) | 
16 |  |  |  | 7% | 3% | 12% | CCN(CC)C1=NS(=O)(=O)C(c2ccccn2)=C1c1ccc(OC)cc1 | 
17 |  |  |  | 56% | 27% | 43% | CCN(CC)C1=NS(=O)(=O)C(C)=C1c1ccc(OC)cc1 | 
18 | 0% | 8% | 11% |  |  |  | CCN(CC)C1=NS(=O)(=O)C(c2cc(-c3c(C)cc(C)cc3C)no2)=C1c1ccc(OC)cc1 | 
19 | 8% | 22% | 17% |  |  |  | CCN(CC)C1=NS(=O)(=O)C(C2CC(c3c(C)cccc3C)=NO2)=C1c1ccc(OC)cc1 (stereo unspecified) | 
20 | 10% | 9% | 12% |  |  |  | CCOC1C(c2c(C)cc(C)cc2C)=NOC1C1=C(c2ccc(OC)cc2)C(N(CC)CC)=NS1(=O)=O (stereo unspecified) | 
21 | 50% | 21% | 25% |  |  |  | CCN(CC)C1=NS(=O)(=O)C(C2CC(c3c(C)cc(C)cc3C)=NO2)=C1c1ccc(OC)cc1 (stereo unspecified) | inhibition [4]: 15%; inhibition [5]: 66%; inhibition [6]: 0%; EC50 (Trypanosoma brucei): 10 µM
